Experimental data published in patent US9642803B2, “Nano-sized particles comprising multi-headed amphiphiles for targeted drug delivery” (Ben-Gurion University Of The Negev Research And Development …, priority 2009, dated 2017).

Columns and labels:
mice = assay: Hot plate test (analgesic effect) in mice; type: in vivo; conditions: for response time: nanoparticles by ethanol injection, encapsulated groups pre-injected with pyridostigmine 0.5 mg/kg; for analgesic effect: i.v. 20 mg/Kg
Experimental: The response of mice to a transient painful stimulus was measured following administration of the test material (either i.v. into the tail vein or per os by gavages). The analgesic effect was determined by placing the mouse on a hot plate (55° C., IITC model 39) and recording the time for withdrawing/licking the hind limb (hot plate test). To prevent tissue damage and suffering of the animal, the experiment was terminated after 20 sec if no response was evoked. The response latencies were recorded and either used by themselves for comparison or normalized as percent of maximal possible effect (MPE) using the equation: […]
where: RT—is the response latency after treatment; RT0—is the response latency of a mouse without treatment and RTmax—is the maximal response time allowed (20 sec).
Derivative 4-nanoparticles comprising leu-enkephalin, prepared as described in Example 9 by FHS (film hydration flowed by sonication), were administered to mice and their ability to exert an analgesic effect was measured by the hot plate test described in Methods.
Nanoparticles were made from 10 mg/ml Derivative 4 with cholesterol and cholesteryl hemisuccinate as additives (2:1:1) and 10% molar ratio chitosan (CS)-vernolic acid conjugate in presence of 2.5 mg/ml leu-enkephalin. In these nanoparticles, CS-vernolic acid conjugate serves as a pendant on the nanoparticles/vesicles in order to enhance penetrability.
Nanoparticles were injected into the tail vein at a dose of 20 mg/kg bolaamphiphile, which corresponds to 5 mg/kg leu-enkephaime. Empty nanoparticles and free leu-enkephalin injected in a dose of 20 mg/kg, were used as a negative control and morphine at a dose of 5 mg/kg was used as a positive control. Mice were pretreated with 0.5 mg/kg pyridostigmine 15 min prior to the injection of the nanoparticles. Pyridostigmine inhibits the activity of acetylcholine esterase and thus prevents hydrolysis of the acetyl choline headgroups in the periphery.
Analgesic effect studies (hot plate test) in mice were carried out using nanoparticles comprising Derivative 1 or Derivative 4 and prepare by the ethanol injection technique described in Example 10. The hot plate test was preformed as described in Example 19. All mice treated with encapsulated leu-enkephalin, were pre-injected with the periphery acetylcholine esterase inhibitor pyridostigmine (0.5 mg/kg).
The efficacy of delivering leu-enkephalin in various nanoparticles in oral formulations versus i.v. injectable formulations were tested (a hot plate test of Example 20). Thus, formulations comprising leu-enkephalin encapsulated in the following nanoparticles were prepared: (a) nanoparticles comprising Derivative 4, cholesterol, cholesteryl hemisuccinate and vernolyl-chitosan prepared according to Example 13(i); (b) nanoparticles comprising distearyl phosphatidyl choline (DSPC) as the amphiphilic compound, cholesterol, prepared as described in Example 13(iii).
Formulations comprising […] leu-enkephalin loaded nanoparticles were administered by gavages at a dose of 100 mg/kg bolaamphiphile, which corresponds to 25 mg/kg leu-enkephalin. The same dose of free leu-enkephalin was administered by gavages as a control. The results were compared to liposomes made from 20 mg/ml DSPC in presence of 5 mg/ml leu-enkephalin and administered at a dose of 200 mg/kg phospholipid, which corresponds to 50 mg/kg leu-enkephalin. The mice were preinjected with pyridostigmine as in example 20. The results, are shown in FIG. 2, represent the analgesic effect as percent of maximal possible response (MPE).
In order to assess an optimized delivery and targeted release efficiencies, the analgesic effect of formulations containing nanoparticles comprising Derivative 4, cholesterol, cholesteryl hemisuccinate and vernoyl chitosan as additives (chitosan nanoparticles), and various amounts of leu-enkephalin was studied by the hot plate test. Nanoparticles were prepared as described in Example 15. […]

[1] = Percentage of encapsulation in bolaamphiphile vesicles; type: physicochemical

CN(C)C(=O)Oc1ccc[n+](C)c1.[Br-] [pyridostigmine, 3-(Dimethylamino-carbonyloxy)-1-methylpyridinium bromide]
analgesic response of pyridostigmine by itself (mice; 0.5 mg/kg): does not evoke an analgesic response

5(6)-Carboxyfluorescein [CF]
percentage of CF encapsulation ([1]; Derivative 4/cholesterol/cholesteryl hemisuccinate/PEG(201) or PEG(202) 100:25:25:10 nanoparticles, PBS pH 8.0): 20%

[5-Leucine] Enkephalin [free leu-enkephalin]
response time (mice; 10 minutes after i.v. injection): 3 s
response time (mice; 30 minutes after i.v. injection): 2 s
response time (mice; 60 minutes after i.v. injection): 2 s
analgesic effect (mice; mice pretreated with pyridostigmine, Example 27): no significant analgesic effect
analgesic effect (mice; Example 28): no significant analgesic effect
percentage of encapsulation at pH above pI relative to pH below pI ([1]; Derivative 4/cholesterol/cholesteryl hemisuccinate nanoparticles, TBS pH 8.5): 2 to 4 times
